# Measured values published in article PMC10987543 (Cell Death Discovery, 2024).
# Entries after “also recorded” stand apart in the source; their conditions may differ. Ends that are not written are not given here.
# Assays:
# 4T1 murine TNBC cells = assay: Real-time cell viability assay (xCELLigence RTCA); format: cell-based; details: serum-free media, dose-dependent, representative of N = 3
# Description: Three thousand cells were seeded in the wells of an xCELLigence RTCA E-plate 16 (Agilent, Santa Clara, CA). After the cells adhered to the plate, the media was replaced with serum-free media, and the cells were treated with CKS1 at the indicated concentrations. The viability of the cells was monitored using the xCELLigence RTCA analyzer (Agilent).
# 4T1 cells [1] = assay: LDH release assay (CyQUANT); format: cell-based, murine; details: 6 h, indicated concentrations, normalized to lysis buffer
# Description: Ten thousand cells were seeded in a 96-well plate and incubated overnight. The cells were washed once, and the medium was replaced with serum-free media. Cells were treated with CKS1 for the indicated time and concentration. CyQUANT LDH cytotoxicity assay (Thermo Fisher Scientific) was used following the manufacturer’s instructions to measure the release of LDH. LDH release was normalized to the amount of LDH released from cells treated with lysis buffer.
# [2] = system: DC2.4 murine dendritic cells; assay: Immunogenicity experiment: cytokine expression in dendritic cells (qPCR); format: cell-based; details: DC2.4 cells, 2 h with conditioned media from 4T1 cells treated with 100 µM CKS1; N = 4
# Description: Two-lakh cells of 4T1 cells were seeded in wells of a 6-well plate. After overnight incubation, the media was replaced with 500 µL of fresh media, and 4T1 cells were treated with either 100 µM CKS1 or water for 2 h. In a separate well, 500 µL of fresh media was added and 100 µM CKS1 was incubated for 2 h. After the 2 h of incubation, all the supernatant was collected, filtered with 0.22 µm syringe filter, and was stored at −80 °C. Five lakh cells of DC2.4 cells were seeded in wells of a 24-well plate. After overnight incubation, the media was replaced with fresh media, supernatant from 4T1 cells treated with water, supernatant from 4T1 cells treated with 100 µM CKS1, or media containing 100 µM CKS1. DC2.4 cells were incubated for 2 h before RNA extraction.
# RNA extraction was conducted using QIAwave RNA Mini Kit (Qiagen, Germany, 74535) following the manufacturer’s instructions. […]
# Real-time qPCR was conducted using PowerUp SYBR Green Master Mix for qPCR (Thermo Fisher Scientific, A25741) following the manufacturer’s instructions. […] The relative quantity of TNF, IL-6, and IL-12b was normalized to the relative quantity of GAPDH. Finally, the expression level of the cytokines was normalized to the control sample and the fold change was calculated.
# HUVECs = assay: BrdU incorporation cell proliferation assay; format: cell-based, human; details: at a concentration in which CKS1 did not induce LDH release, N = 3
# Description: One thousands cells were seeded in wells of a 96-well plate. The cells were treated with the indicated concentration of CKS1 immediately after seeding. Forty-eight hours later, 5-bromo-2’-deoxyuridine (BrdU) was added to each well. Twenty four hours later, BrdU incorporation was quantified using the BrdU cell proliferation assay kit (Cell Signaling Technology, Danvers, MA) following the manufacturer’s instructions.
# CT26 tumors = assay: CT26 colon carcinoma model, intratumoral treatment; format: in vivo, Balb/c mice; details: 40 mg/kg intratumoral daily from day 7, N = 10
# Description: The protocols used in this study were approved by the Institutional Care and Use Committee at Johns Hopkins Medical Institutions. Four- to eight-week-old female Balb/c mice were obtained from Charles River (Wilmington, MA). For the 4T1 […] model, 2.5 × 10^4 4T1 cells were injected into the first mammary fat pad of each mouse. For the CT26 colon carcinoma model, 1.0 × 10^6 CT26 cells were injected subcutaneously in the left flank. The sample size was determined so that the final distribution would be close to normal distribution. After 1 week, the animals were randomized into control and CKS1 treatment. During the randomization, the mice were kept in a cage covered with cloth so that the investigator could not see the tumor size. We started daily intratumoral treatment with 40 mg/kg CKS1. For the control group, the matching volume of water was treated intratumorally. The tumor size was measured by using a caliper, and the volume was calculated by using the formula 0.52 × (length) × (width)^2.
# CT26 cells = assay: Quantification of ATP release; format: cell-based, murine; details: 20 µM or 100 µM, 30 min, N = 3
# Description: (§1) Two-lakh cells of 4T1 cells or CT26 cells in growth media were seeded in wells of a 96-well plate. After 12 h, the media was replaced with serum-free media, and the cells were treated with the corresponding concentration of CKS1. […] After filtering the supernatant with a 0.2 µm pore filter (Corning, 431229), the amount of ATP in the supernatant was quantified using the ENLITEN ATP assay system (Promega Corporation, Madison, WI, FF2000). We followed the instructions from the manufacturer when using the ENLITEN ATP assay system.
# 4T1 cells [3] = assay: Quantification of ATP release; format: cell-based, murine; details: 20 µM or 100 µM, 30 min, N = 3
# Description: as §1
substance,measurement,setting,value
"NGRKACLNPASPIVKKIIEKMLNS-NH2 [CKS1, Chemokinostatin-1]",time to cell death (reduction in cell index) after treatment,4T1 murine TNBC cells,≤ 1 h
same,release of LDH,4T1 cells [1],released significant amounts of LDH
same,"expression level of TNF, IL-6, IL-12b",[2],significantly increased the expression level of the cytokines
same,cell proliferation (BrdU incorporation),HUVECs,significantly attenuated cell proliferation
same,tumor growth (tumor volume),CT26 tumors,inhibited; also recorded: highly sensitive
same,release of ATP in the culture media,CT26 cells,significant release of ATP
same,release of ATP in the culture media,4T1 cells [3],significant release of ATP
